Source: paper PMC10134960, “Discovery of sulfonamide-tethered isatin derivatives as novel anticancer agents and VEGFR-2 inhibitors” (Journal of Enzyme Inhibition and Medicinal Chemistry, 2023)
Blank lines part the entries; values can stand above or below the molecule they belong to.

Key:
T47D cells [1] = assay: In vitro cytotoxicity against T47D (sulforhodamine B colorimetric test); details: Homo sapiens, 72 h, read-out: IC50 ± S.D. T47D
Method: Doxorubicin was set as reference in this assay.
The cytotoxic efficacy of the target compounds against T47D cells was determined, using the SRB colorimetric technique, as previously reported. Briefly, exponentially growing cells were trypsinized, counted and seeded at the appropriate densities (5000 cells/100 μL/ well) into 96-well microtiter plates.
Then, the cells were exposed to the tested compounds at the desired concentrations (0.01, 0.1, 1, 10, and 100 μM) or to 1% dimethyl sulfoxide (DMSO) for 72 h. At the end of the treatment period, the media were removed, and the cells were fixed with 10% trichloroacetic acid at 4 °C for 1 h. Following, the cells were washed with tap water four times and incubated with SRB 0.4% for 30 min. Excess dye was removed by washing repeatedly with 1% (vol/vol) acetic acid.
The protein-bound dye was dissolved in 10 mM Tris base solution for (optical density) OD determination at 510 nm using a Spectra Max plus Microplate Reader (Molecular Devices, CA).
Cell viability was expressed relative to the untreated control cells 2, 3.

T47D cells [2] = assay: Annexin V-FITC/PI apoptosis assay; assay type: cell-based, human; details: for Early apoptosis / Late apoptosis: 24 h, annexin V-FITC/PI; for increase of overall apoptosis in comparison to the control: versus untreated control
Source text: To explore link between growth suppression activity of compounds 11b and 12b with initiation of apoptosis indicated by rising population of sub-G1 in treated T47D cell lines, the Annexin V-FITC/PI double labelling (AV/PI) apoptosis assay was done. The outcomes of the experiment are shown in Figure 4, showing that compounds 11b and 12b caused T47D cell lines to undergo early and late apoptosis. In fact, % of apoptotic cells amplified from 0.41% at early and 0.22% at late apoptosis in T47D cells that had not been treated to 31.0% of early and 12.07% of late apoptosis in T47D cell that had been treated with compound 11b and to 23.5% at early and 9.4% at late apoptosis of T47D cells that had been treated with compound 12b. According to these findings, compounds 11b and 12b increased the overall apoptosis of T47D cells by roughly 19 and 16.2 times, respectively, in comparison to the control.
The supplementary data included descriptions of every experimental technique. […]
μM of compounds 11b and 12b. […]
(§1) and fixed for 12 h. […] Then, the cells
Cell cycle analysis and apoptosis were […]
experiment has been carried out three times.
Annexin V-FITC apoptosis assay […]
washed with cold phosphate-buffer saline (PBS). Cells were then stained with Annexin V-FITC […]
The samples were analyzed using the flow cytometer 8, 9.

T47D cells [3] = assay: Cell cycle distribution analysis by flow cytometry; assay type: cell-based, human; details: 10 μM, 24 h
Method: DMSO (control) or compounds 11b and 12b were applied to T47D cells, and flow cytometry was used to determine the DNA concentration. Figure 3 presents the findings. […]
μM of compounds 11b and 12b.
as §1
Cell cycle analysis and apoptosis were
experiment has been carried out three times. […]

CA II = CA II (Homo sapiens, UniProt P00918); assay: biochemical
Method: Carbonic anhydrase I, II, and IX inhibition studies
The CO2 hydration actions catalyzed by carbonic anhydrase for targeted compounds herein
presented were measured using an Applied Photophysics stopped-flow instrument. The enzymes
are recombinant proteins that have been created in a lab. Following the initial rates of the CA-
catalyzed CO2 hydration reaction for a period of 10-100 s, phenol red (at a concentration of 0.2
mM) was used as an indicator, working at an absorbance maximum of 557 nm, with 20 mM
Hepes (pH 7.5) as a buffer, and 20 mM Na2SO4 (to maintain constant the ionic strength). The
CO2 concentrations used to determine the kinetic parameters and inhibition constants ranged
from 1.7 to 17 mM. At least six traces of the first 5-10% of the reaction were utilized to
determine the beginning velocity for each inhibitor. In the same way, the uncatalyzed rates were calculated and deducted from the total measured rates. Stock inhibitor solutions (0.1 mM) were
produced in distilled-deionized water, followed by dilutions with the assay buffer up to 0.01 nM.
Prior to the experiment, the inhibitor and enzyme solutions were preincubated together for 15
minutes at room temperature to allow for the development of the E-I complex. The inhibition
constants were calculated using non-linear least-squares methods using the ChengPrusoff
equation in PRISM 3. They reflect the average of at least three individual measurements 6, 7.

CA I = target: T1, CA I (Homo sapiens, UniProt P00915); assay: Carbonic anhydrase inhibition, stopped-flow CO2 hydration, CA I; assay type: biochemical; details: stopped flow assay, mean of triplicate assays
T1 construct: made in house

T47D cells [4] = assay: NCI in vitro single-dose cellular antiproliferative assay, T47D cells; assay type: cell-based; details: Homo sapiens; T47D breast cancer cells, single concentration of 10 μM; read-out: GI% (growth inhibition)
Method: (§2) The designed isatin derivatives 6a-i, 11a-c and 12a-c were examined for in vitro antitumor activity on NCI panel involving 58 distinct human tumour cell lines covering nine distinct types of cancer, at single concentration of 10 μM (supplementary file). […] Based on the findings, we concluded that none of compounds 6a, 6c, or 11a were able to increase cell inhibition by more than 20%. And by looking at the mean growth inhibition of the other compounds on each cancer, we discovered that, in addition to CNS cancer in compound 11c and leukaemia in compounds 12b and 12c, all the compounds had the strongest mean growth inhibition on breast cancer cell lines.
(§3) The supplementary data included descriptions of every experimental technique.
(§4) NCI-60 cancer cell lines screening
(§5) Primary anticancer assay was performed on a panel of sixty human tumour cell lines derived from nine neoplastic diseases, in accordance with the protocol of the Drug Evaluation Branch, National Cancer Institute, Bethesda, Maryland, USA. Tested compounds were added to the cell culture at a single concentration ([…]) and the cultures were incubated for 48 h. End point determinations were made with a protein binding dye, sulforhodamine B (SRB). Results for each tested compound were reported as the percent of growth of treated cells when compared to untreated control cells. The percentage growth was evaluated spectrophotometrically versus controls not treated with test agents 1. […]

VEGFR-2 = target: T2, VEGFR-2 (Homo sapiens, UniProt P35968); assay: VEGFR-2 inhibition assay (HTRF); assay type: biochemical; details: for IC50: mean ± SD of triplicate, read-out: VEGFR-2 IC50 ± S.D.
T2 construct: purchased BioAssay Systems EKIN-400
Method: HTRF (homogeneous time-resolved fluorescence) assay method was used to conduct inhibitory action of all newly synthesized compounds against VEGFR-2. VEGFR-2 kinase (BioAssay Systems - Kinase Assay Kit, EKIN-400) and its substrate were incubated for 5 min in a buffer solution with newly synthesized compounds/Sorafnib to initiate the enzymatic reaction, then ATP was added to the reaction mixture. Hold under 30 min at room temperature. The reaction was stopped by adding

CA IX [5] = target: T3, CA IX (Homo sapiens, UniProt Q16790); assay: Carbonic anhydrase inhibition, stopped-flow CO2 hydration, CA IX; assay type: biochemical; details: stopped flow assay, mean of triplicate assays
T3 construct: made in house

CA IX [6] = target: CA IX; set-up: method as in PMID 30445264; details: cancer-related CA IX isoform; cited from earlier work
[7] = system: NCI panel of 58 human tumour cell lines; assay: NCI in vitro single-dose antiproliferative assay, panel of 58 tumour cell lines; assay type: cell-based; details: single concentration of 10 μM, read-out: cell inhibition (mean % growth inhibition, GI)
Method: as §2, §3, §4, §5

T2 sequence (P35968 20-1356): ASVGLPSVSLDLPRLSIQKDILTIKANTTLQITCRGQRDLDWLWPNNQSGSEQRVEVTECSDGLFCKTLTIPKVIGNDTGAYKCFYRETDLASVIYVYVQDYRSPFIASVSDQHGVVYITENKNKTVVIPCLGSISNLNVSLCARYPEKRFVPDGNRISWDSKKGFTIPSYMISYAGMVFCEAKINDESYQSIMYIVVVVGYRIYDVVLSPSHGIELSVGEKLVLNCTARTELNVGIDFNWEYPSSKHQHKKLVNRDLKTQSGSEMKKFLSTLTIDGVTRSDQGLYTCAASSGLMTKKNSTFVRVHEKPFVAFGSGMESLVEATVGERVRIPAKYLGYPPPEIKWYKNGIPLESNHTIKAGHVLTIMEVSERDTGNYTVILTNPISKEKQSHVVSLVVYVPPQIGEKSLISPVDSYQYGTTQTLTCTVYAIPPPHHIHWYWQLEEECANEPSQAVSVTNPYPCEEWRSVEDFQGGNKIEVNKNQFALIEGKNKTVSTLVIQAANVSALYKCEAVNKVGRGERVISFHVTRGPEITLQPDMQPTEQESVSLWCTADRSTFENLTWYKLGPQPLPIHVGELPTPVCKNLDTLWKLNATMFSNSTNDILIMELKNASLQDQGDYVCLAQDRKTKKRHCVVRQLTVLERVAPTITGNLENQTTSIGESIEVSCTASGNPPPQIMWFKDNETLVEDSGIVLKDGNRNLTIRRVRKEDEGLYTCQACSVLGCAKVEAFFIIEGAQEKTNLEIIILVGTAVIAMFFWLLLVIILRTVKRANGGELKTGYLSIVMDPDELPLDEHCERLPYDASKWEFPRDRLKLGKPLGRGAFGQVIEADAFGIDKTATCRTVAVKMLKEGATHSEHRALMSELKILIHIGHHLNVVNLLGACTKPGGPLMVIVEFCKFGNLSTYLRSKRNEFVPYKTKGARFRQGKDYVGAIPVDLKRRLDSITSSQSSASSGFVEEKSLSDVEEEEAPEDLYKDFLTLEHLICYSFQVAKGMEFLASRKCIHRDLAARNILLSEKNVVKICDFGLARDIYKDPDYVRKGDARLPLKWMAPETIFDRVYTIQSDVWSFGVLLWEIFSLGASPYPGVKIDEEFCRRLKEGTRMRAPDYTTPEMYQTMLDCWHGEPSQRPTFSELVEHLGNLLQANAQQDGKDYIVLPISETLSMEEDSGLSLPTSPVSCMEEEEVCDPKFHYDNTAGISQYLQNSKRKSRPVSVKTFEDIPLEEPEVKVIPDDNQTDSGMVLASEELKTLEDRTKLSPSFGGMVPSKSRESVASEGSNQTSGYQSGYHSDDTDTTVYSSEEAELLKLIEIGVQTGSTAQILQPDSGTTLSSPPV
T1 sequence (P00915 whole entry): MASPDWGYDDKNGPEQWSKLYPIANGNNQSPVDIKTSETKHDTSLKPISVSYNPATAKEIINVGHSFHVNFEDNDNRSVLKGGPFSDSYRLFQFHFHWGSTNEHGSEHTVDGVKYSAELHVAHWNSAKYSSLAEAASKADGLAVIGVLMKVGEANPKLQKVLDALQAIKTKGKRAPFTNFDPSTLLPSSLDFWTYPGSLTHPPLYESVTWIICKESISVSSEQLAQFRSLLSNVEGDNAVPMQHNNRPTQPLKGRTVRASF

Compound: CN1C(=O)/C(=N\c2ccc(NC(=O)Nc3ccc(S(N)(=O)=O)cc3)cc2)c2cc(Cl)ccc21 [compound II]
Ki (CA IX [6]): 0.0052 µM

Compound: COc1ccc(/C(C)=N/N=C2/C(=O)Nc3ccc(F)cc32)cc1S(N)(=O)=O [Compound 6b]
melting point: 262 to 264 °C

Compound: COc1ccc(/C(C)=N/N=C2/C(=O)Nc3ccccc32)cc1S(N)(=O)=O [Compound 6a]
inhibition at 10 µM [7]: ≤ 20%
melting point: 250 to 252 °C

Compound: COc1ccc(/C(C)=N/N=C2/C(=O)Nc3c(F)cccc32)cc1S(N)(=O)=O [Compound 6c]
inhibition at 10 µM [7]: ≤ 20%
melting point: 266 to 268 °C

Compound: COc1ccc(/C(C)=N/N=C2/C(=O)Nc3ccc(Br)cc32)cc1S(N)(=O)=O [Compound 6f]
IC50 (T47D cells [1]): 5.45 ± 0.24 µM
Ki (CA II): > 100 µM
Ki (CA I): > 100 µM
inhibition at 10 µM (T47D cells [4]): 54%
inhibition at 10 µM (VEGFR-2): 86.8%
IC50 (VEGFR-2): 0.0567 ± 0.00072 µM
melting point: 274 to 276 °C
Ki (CA IX [5]): > 100 µM

Compound: COc1cccc2c1C(=O)c1c(O)c3c(c(O)c1C2=O)C[C@@](O)(C(=O)CO)C[C@@H]3O[C@H]1C[C@H](N)[C@H](O)[C@H](C)O1 [Doxorubicin, reference compound]
IC50 (T47D cells [1]): 2.26 ± 0.1 µM

Compound: COc1ccc(/C(C)=N/N=C2/C(=O)Nc3ccc(OC(F)(F)F)cc32)cc1S(N)(=O)=O [Compound 6i]
IC50 (T47D cells [1]): 24.1 ± 1.08 µM
inhibition at 10 µM (T47D cells [4]): 32%
melting point: 270 to 272 °C

Compound: COc1ccc(/C(C)=N/N=C2/C(=O)N(C)c3ccccc32)cc1S(N)(=O)=O [Compound 11a]
inhibition at 10 µM [7]: ≤ 20%

Compound: COc1ccc(/C(C)=N/N=C2/C(=O)Nc3ccc(Cl)cc32)cc1S(N)(=O)=O [Compound 6d]
melting point: 268 to 270 °C

Compound: COc1ccc2c(c1)/C(=N\N=C(/C)c1ccc(OC)c(S(N)(=O)=O)c1)C(=O)N2 [Compound 6h]
melting point: 264 to 266 °C

Compound: COc1ccc(/C(C)=N/N=C2/C(=O)Nc3cc(Br)ccc32)cc1S(N)(=O)=O [Compound 6g]
melting point: 276 to 278 °C

Compound: COc1ccc(/C(C)=N/N=C2/C(=O)Nc3c(Cl)cccc32)cc1S(N)(=O)=O [Compound 6e]
melting point: 278 to 280 °C

More lines, main results first:

Ki (CA II): > 100 µM
Ki (CA I): > 100 µM
inhibition at 10 µM (VEGFR-2): 72.7%
IC50 (VEGFR-2): 0.0634 ± 0.00072 µM
melting point: 248 to 250 °C
Ki (CA IX [5]): > 100 µM
Compound: COc1ccc(/C(C)=N/N=C2/C(=O)N(C)c3ccc(Cl)cc32)cc1S(N)(=O)=O [Compound 11b]
IC50 (T47D cells [1]): 1.83 ± 0.08 µM
Early apoptosis (T47D cells [2]): 31.0%
Late apoptosis (T47D cells [2]): 12.07%
increase of overall apoptosis in comparison to the control (T47D cells [2]): roughly 19 times
%G0/G1 (T47D cells [3]): 68.42%
%Sub-G1 (T47D cells [3]): 45.88%
inhibition at 10 µM (T47D cells [4]): 55%

Ki (CA II): > 100 µM
Ki (CA I): > 100 µM
inhibition at 10 µM (VEGFR-2): 97.2%
IC50 (VEGFR-2): 0.0231 ± 0.00041 µM
melting point: 245 to 247 °C
Ki (CA IX [5]): > 100 µM
Compound: COc1ccc(/C(C)=N/N=C2/C(=O)N(Cc3ccccc3)c3ccc(Cl)cc32)cc1S(N)(=O)=O [Compound 12b]
IC50 (T47D cells [1]): 3.59 ± 0.16 µM
Early apoptosis (T47D cells [2]): 23.5%
Late apoptosis (T47D cells [2]): 9.4%
increase of overall apoptosis in comparison to the control (T47D cells [2]): ~16.2 times
%S (T47D cells [3]): 41.05%
%Sub-G1 (T47D cells [3]): 39.15%
inhibition at 10 µM (T47D cells [4]): 28%

melting point: 260 to 262 °C
Compound: COc1ccc(/C(C)=N/N=C2/C(=O)N(Cc3ccccc3)c3ccc(Br)cc32)cc1S(N)(=O)=O [Compound 12c]
IC50 (T47D cells [1]): 16.5 ± 0.74 µM
inhibition at 10 µM (T47D cells [4]): 39%

Ki (CA II): > 100 µM
Ki (CA I): > 100 µM
inhibition at 10 µM (VEGFR-2): 92%
IC50 (VEGFR-2): 0.0301 ± 0.00031 µM
melting point: 263 to 265 °C
Ki (CA IX [5]): > 100 µM
Compound: COc1ccc(/C(C)=N/N=C2/C(=O)N(C)c3ccc(Br)cc32)cc1S(N)(=O)=O [Compound 11c]
IC50 (T47D cells [1]): 10.4 ± 0.47 µM
inhibition at 10 µM (T47D cells [4]): 52%

melting point: 235 to 237 °C
Compound: COc1ccc(/C(C)=N/N=C2/C(=O)N(Cc3ccccc3)c3ccccc32)cc1S(N)(=O)=O [Compound 12a]
IC50 (T47D cells [1]): 11.6 ± 0.52 µM
inhibition at 10 µM (T47D cells [4]): 57%
